Assay results as given in patent publication US5612480A, “2-chloro and 2-bromo derivatives of 1,5-iminosugars” (priority 1995, dated 1997).
Where two headings read alike, the source gives them in different places.

Key:
α-Glucosidase (yeast) = biological target: T1, α-Glucosidase (yeast) (Saccharomyces cerevisiae, UniProt P53341); test: Alpha-glucosidase (yeast) inhibition assay, pH 7.4; type: biochemical
T1 construct: purchased Sigma
Experimental: (§1) Yeast alpha-glucosidase and almond beta-glucosidase activities were measured by a modification of the method of Evans, et al., Phytochemistry 22, 768-770 (1983). The modifications included (1) assay of activities at pH 7.4 in HEPES (N-2-hydroxyethylpiperazine-N'-2-ethanesulfonic acid) buffer, 2) measurement in 96 well microtiter plates and (3) inclusion of 10% DMSO in control and test samples.
(§2) The release of p-nitrophenol from the substrate p-nitrophenylglycoside was measured spectrophotometrically in the presence and absence of test compound. Each assay included a known inhibitor of the enzyme as a standard. IC50 values were determined for compounds which inhibited the enzymes more than 50% at a 1 millimolar concentration.
(§3) To 100 μl 50 mM HEPES buffer, pH 7.4, in a microtiter plate, add 20 μl test compound in DMSO (DMSO alone in control), 40 μl (0.013 units) yeast alpha-glucosidase (Sigma) in HEPES buffer and pre-incubate at room temperature for 15 minutes. Add 40 μl 1.25 mM p-nitrophenyl-alpha-D-glucopyranoside (Sigma) in HEPES buffer, as substrate, and monitor absorbance change at 405 nm in a Biotek EIA Autoreader. Absorption change was measured at 15 to 25 minutes (reaction was linear for at least 30 minutes). Each sample was tested in triplicate. IC50 values were determined from the linear portion of the log concentration vs % inhibition curve obtained from a minimum of 3 points. Deoxynojirimycin was used as standard inhibitor.

β-Glucosidase (almond) [1] = test: Beta-glucosidase (almond) inhibition assay, pH 7.4; type: biochemical
Experimental: as §1, §2
as §3, with “μl (0.136” for “μl (0.013”, “units) beta-glucosidase” for “units) yeast alpha-glucosidase”, “mM p-nitrophenyl-beta-D-glucopyranoside” for “mM p-nitrophenyl-alpha-D-glucopyranoside (Sigma)”, “as substrate” for “as substrate,”, “(reaction is” for “(reaction was”, “points. Castanospermine” for “points. Deoxynojirimycin”

β-Glucosidase (almond) [2] = test: Beta-glucosidase (almond) inhibitor assay, pH 4.8; type: biochemical
Experimental: as §1, §2
To 100 μl 50 mM sodium citrate buffer, pH 4.8, in a microtiter plate, add 15 μl test compound in DMSO (DMSO alone in control), 20 μl (0.017 units) beta-glucosidase (Sigma) in citrate buffer and pre-incubate at room temperature for 15 minutes. Add 25 μl 2.50 mM p-nitrophenyl-beta-D-glucopyranoside in citrate buffer, as substrate. Incubate at room temperature 20 minutes (reaction is linear for at least 30 minutes). Add 50 μl 0.4 M NaOH. Read absorption change at 405 nm in a Biotek EIA Autoreader. Each sample was tested in triplicate. IC50 values were determined from the linear portion of the log concentration vs % inhibition curve obtained from a minimum of 3 points. Castanospermine was used as standard inhibitor.

visna virus = test: Inhibition of visna virus growth, plaque reduction assay in sheep choroid plexus (SCP) cells (Method A); type: cell-based
Excerpt: Inhibitory activity against visna virus was shown by a conventional plaque reduction assay. Visna virus, a lentivirus genetically very similar to the AIDS virus, is pathogenic for sheep and goats. See Sonigo et al., Cell 42, 369-382 (1985); Haase, Nature 322, 130-136 (1986). Inhibition of visna virus replication in vitro as a useful model for HIV and its inhibition by test compounds has been described by Frank et al., Antimicrobial Agents and Chemotherapy 31 (9), 1369-1374 (1987).
Various illustrative compounds synthesized above were tested for inhibition of visna virus in vitro in a plaque reduction assay (Method A) or for inhibition of HIV-1 in a test which measured reduction of cyto-pathogenic effect in virus-infected syncytium-sensitive Leu-3a-positive CEM cells grown in tissue culture (Method B) as follows:
Sheep choroid plexus (SCP) cells were obtained from American Type Culture Collection (ATCC) catalogue number CRL 1700 and were routinely passaged in vitro in Dulbecco's Modified Eagles (DME) medium supplemented with 20% fetal bovine serum (FBS). SCP cells were passaged once per week at a 1:2 or 1:3 split ratio. Visna was titrated by plaque assay in six-well plates. Virus pools were stored at -70° C.
SCP cells were cultured in 6-well plates to confluence. Wells were washed two times with serum free Minimal Essential Medium (MEM) to remove FBS. 0.2 ml of virus was added per well in MEM supplemented with 4 mM glutamine and gentamycin. After 1 hour adsorption, the virus was aspirated from each well. The appropriate concentration of each compound in 5 ml of Medium 199 (M-199) supplemented with 2% lamb serum, 4 mM glutamine, 0.5% agarose and gentamycin was added to each well. Cultures were incubated at 37° C. in a humidified 5% CO2 incubator for 3-4 weeks. To terminate the test, cultures were fixed in 10% formalin, the agar removed, the monolayers stained with 1% crystal violet and plaques counted. Each compound concentration was run in triplicate. […] 0 is no toxicity observed while 4 is total lysing of the cell monolayer. […]
Control wells without virus were completed to determine the toxicity of compounds.

[3] = 100 μM, pH 7.4, read-out: Percent inhibition of α-glucosidase (yeast)
[4] = 1000 μM, pH 7.4, read-out: Percent inhibition of α-glucosidase (yeast)
[5] = pH 7.4, read-out: Percent inhibition of α-glucosidase (yeast)

T1 sequence (P53341 whole entry): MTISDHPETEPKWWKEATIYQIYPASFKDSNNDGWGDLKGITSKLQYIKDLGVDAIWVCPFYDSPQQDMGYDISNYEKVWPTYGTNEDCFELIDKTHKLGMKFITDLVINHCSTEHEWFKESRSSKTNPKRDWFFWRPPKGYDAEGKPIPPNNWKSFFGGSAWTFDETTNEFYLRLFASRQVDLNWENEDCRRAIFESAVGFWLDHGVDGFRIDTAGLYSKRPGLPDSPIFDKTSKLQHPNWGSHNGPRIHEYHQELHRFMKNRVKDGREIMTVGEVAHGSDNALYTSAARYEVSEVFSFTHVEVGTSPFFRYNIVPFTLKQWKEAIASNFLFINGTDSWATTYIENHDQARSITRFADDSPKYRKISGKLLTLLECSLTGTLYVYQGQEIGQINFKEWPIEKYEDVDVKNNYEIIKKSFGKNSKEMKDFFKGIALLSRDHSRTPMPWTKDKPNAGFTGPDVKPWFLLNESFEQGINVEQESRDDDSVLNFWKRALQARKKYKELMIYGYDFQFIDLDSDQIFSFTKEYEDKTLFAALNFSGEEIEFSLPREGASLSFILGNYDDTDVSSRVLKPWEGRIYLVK

Row | Structure (SMILES) | inhibition at 100 µM (α-Glucosidase (yeast); [3]) | inhibition at 1000 µM (α-Glucosidase (yeast); [4]) | Percent inhibition of β-glucosidase (almond) (β-Glucosidase (almond) [1]; 100 μM) | Percent inhibition of β-glucosidase (almond) (β-Glucosidase (almond) [1]; 1000 μM) | Percent inhibition of β-glucosidase (almond) (β-Glucosidase (almond) [2]; 100 μM) | Percent inhibition of β-glucosidase (almond) (β-Glucosidase (almond) [2]; 1000 μM) | inhibition at 1000 µM (visna virus; Visna-maedi virus, 1.0 mM) | % inhibition of visna virus growth (visna virus; 0.001 mM) | % inhibition of visna virus growth (visna virus; 0.01 mM) | % inhibition of visna virus growth (visna virus; 0.1 mM) | % inhibition of visna virus growth (visna virus; 1.0 mM) | inhibition at 1 µM (α-Glucosidase (yeast); [5]) | inhibition at 10 µM (α-Glucosidase (yeast); [5]) | inhibition at 100 µM (α-Glucosidase (yeast); [5]) | inhibition at 1000 µM (α-Glucosidase (yeast); [5])
1 | CCCCN1[C@H](CO)[C@@H](O)[C@H](O)[C@H]1CNC(C)=O [Example 51, 1-(Acetylamino)-2,5-(butylimino)-1,2,5-trideoxy-D-mannitol] | 27.1% | 39.3% | -3.8% | 4.4% | 6% | 26% | – | – | – | – | – | – | – | – | –
2 | CCCCN1C[C@H](C#N)[C@@H](O)[C@H](O)[C@H]1CO [Example 53, 1,5-(Butylimino)-2-cyano-1,2,5-trideoxy-D-glucitol] | 20.1% | -29.4% | -4.2% | -7.3% | 1.6% | 9.5% | – | – | – | – | – | – | – | – | –
3 | CCCCN1[C@H](CO)[C@@H](O)[C@H](O)[C@H]1CSc1nnnn1C [56(b), 2,5-(Butylimino)-2,5-dideoxy-1S-(1-methyl-1H-tetrazol-5-yl) 1-thio-D-mannitol] | 15.6% | 15.7% | -6% | 5.7% | 7.5% | 29.4% | – | – | – | – | – | – | – | – | –
4 | CCCCNC(=O)O[C@H]1CN(CCCC)[C@H](CO)[C@@H](O)[C@@H]1O [Example 36] | 11% | -6.8% | -2.4% | 0.3% | 4.3% | 3.1% | 21% | – | – | – | – | – | – | – | –
5 | CCCCN1[C@H](CO)[C@@H](O)[C@H](O)[C@H]1CC#N [Example 54, 3,6-(Butylimino)-2,3,6-trideoxy-D-manno-heptanonitrile] | 23.5% | 22.6% | -7.8% | -7.9% | 0.1% | 4.1% | – | – | – | – | – | – | – | – | –
6 | CCCCN1[C@H](CO)[C@@H](O)[C@H](O)[C@H]1COC(=O)c1ccccc1 [Example 58, 2,5-(Butylimino)-2,5-dideoxy-D-mannitol, 1-benzoate] | 36.2% | 44% | -7.5% | 13.2% | 1.8% | 18.6% | – | – | – | – | – | – | – | – | –
7 | OC[C@@H]1[C@@H](O)[C@H](O)[C@@H](Cl)CN1CCCc1ccccc1 [Example 30, 2-Chloro-1,2,5-trideoxy-1,5-(3-phenyl)propylimino-D-glucitol] | – | – | 66.2% | 92.5% | 47.6% | 84.7% | – | 20% | 57% | 97% | 100% | 4.6% | 46.4% | 87.3% | 97.5%
8 | CCCCN(CCCC)C[C@@H]1[C@@H](O)[C@H](O)[C@@H](CO)N1CCCC [Example 49, 2,5-(Butylimino)-1-(dibutylamino)-1,2,5-trideoxy-D-mannitol] | -12.6% | -20.5% | -5.3% | 0.2% | 10.9% | 18.8% | – | – | – | – | – | – | – | – | –
9 | CCCCN1C[C@H](Sc2nnnn2C)[C@@H](O)[C@H](O)[C@H]1CO [56(a), 1,5-(Butylimino)-1,5-dideoxy-2-S-(1-methyl-1H-tetrazol-5-yl) 2-thio-D-glucitol] | 18.1% | -8.2% | -3.4% | -15.8% | -0.9% | 13.7% | – | – | – | – | – | – | – | – | –
10 | CCCCCCCCCN1C[C@H](Cl)[C@@H](O)[C@H](O)[C@H]1CO [Example 29, 2-Chloro-1,2,5-trideoxy-1,5-(nonylimino)-D-glucitol] | – | – | 54.7% | 91.9% | 33.1% | 52.8% | – | 23% | 53% | 100% | – | 11.5% | 61.5% | 91.8% | 102%
11 | CCCCN1[C@H](CN)[C@@H](O)[C@H](O)[C@H]1CO [Example 48, 1-Amino-2,5-(butylimino)-1,2,5-trideoxy-D-mannitol] | 24.6% | 60.9% | 6.9% | 43.1% | 9.5% | 27.9% | – | – | – | – | – | – | – | – | –
